Measurements taken from PMC3822589 (Journal of Cellular and Molecular Medicine, 2013).
Entries after “also recorded” stand apart in the source; their conditions may differ. Like-named read-outs stand apart in the source and are kept apart here.

Key:
[1] = test system: Phospho-STAT5 (P-STAT5) levels in HEL cells (Jak2V617F); assay: Western blot of phospho-STAT5 in HEL cells; assay type: cell-based, human; conditions: for effect on phosphorylation of STAT5 (Western blot): 0.5, 1 or 5 μM, 3 hrs; for IC50 / IC50 values, WB (P-STAT5): mean ± SD
[2] = test system: Jak2V617F in HEK-V617F-STAT-Rep. cells; assay: pSTAT-ZsGreen reporter gene assay; assay type: cell-based; conditions: for IC50: read-out: IC50 values, STAT-reporter gene assay
[3] = test system: Jak2V617F in γ2A-FRT-TI-Jak2V617F/STAT3-YFP cells; assay: STAT3-YFP translocation assay; assay type: cell-based; conditions: for IC50: read-out: IC50 values, STAT3-YFP translocation assay
HEL cells [4] = assay: Cell proliferation assay; assay type: cell-based, human; conditions: for effect on proliferation of HEL cells: 0.3 or 1 μM; for IC50: read-out: IC50 values, Proliferation assay
[5] = test system: γ2A-FRT-TI-Jak2V617F/STAT3-YFP cells; assay: Nuclei size by confocal imaging and Cell Profiler; assay type: cell-based; conditions: 24 hrs; Cell Profiler
[6] = test system: P-STAT5 in UKE-1 cells (Jak2V617F); assay: Western blot of phospho-STAT5 in UKE-1 cells; assay type: cell-based; conditions: 2.5 μM, 3 hrs
[7] = test system: P-STAT5 in BA/F3-EpoR-Jak2V617F cells; assay: Western blot of phospho-STAT5 in BA/F3-EpoR-Jak2V617F cells; assay type: cell-based, murine; conditions: 2.5 μM, 3 hrs
[8] = test system: Jak2V617F phosphorylation (P-Jak2) in HEL cells; assay: Western blot of phospho-Jak2 in HEL cells; assay type: cell-based, human; conditions: 0.5, 1 or 5 μM, 3 hrs
HEL cells [9] = assay: Cell cycle analysis; assay type: cell-based, human; conditions: 500 nM CEP701, VX680, TG101209 or 100 nM AT9283
[10] = test system: phosphorylation of histone H3 (target of Aurora kinase B) in HEL cells; assay: Quantitative Western blot of phospho-histone H3 in HEL cells; assay type: cell-based, human; conditions: HEL cells blocked with Nocodazole; 0.25, 0.5 or 1 μM; 3 hrs
HEL cells [11] = assay: Cell size determination; assay type: cell-based, human; conditions: 600 nM CEP701, TG101209, VX680 or 100 nM AT9283; 24, 48 or 72 hrs
[12] = test system: 2C4, HCT-116 and K-562 cells; assay: Nuclei size in cell lines not expressing Jak2V617F; assay type: cell-based; conditions: 500 nM; 48 hrs
[13] = test system: phosphorylation of histone H3 in UKE-1 cells; assay: Quantitative Western blot of phospho-histone H3 in UKE-1 cells; assay type: cell-based; conditions: UKE-1 cells blocked with Nocodazole; 0.25, 0.5 or 1 μM; 3 hrs
[14] = test system: phosphorylation of histone H3 in BA/F3-EpoR-Jak2V617F cells; assay: Quantitative Western blot of phospho-histone H3 in BA/F3-EpoR-Jak2V617F cells; assay type: cell-based, murine; conditions: BA/F3-EpoR-Jak2V617F cells blocked with Nocodazole; 0.25, 0.5 or 1 μM; 3 hrs
[15] = test system: CD34+ cells of Jak2V617F-positive MPN patients; assay: Colony forming cell; assay type: cell-based, human; conditions: single inhibitor; 12–16 days of culture
[16] = read-out: IC50 values, WB (P-STAT5), HEL cells
[17] = HEK-V617F-STAT-Rep. cells, 24 hrs, mean ± SD
[18] = γ2A-FRT-TI-Jak2V617F/STAT3-YFP cells, mean ± SD
[19] = Homo sapiens, HEL, read-out: IC50 values, WB (P-STAT5), HEL cells

## Cc1cnc(Nc2ccc(N3CCN(C)CC3)cc2)nc1Nc1cccc(S(=O)(=O)NC(C)(C)C)c1 [TG101209]
[1]; HEL cells
  effect on phosphorylation of STAT5 (Western blot): strongly reduced phosphorylation of STAT5
[1]; [16]
  IC50: 92 ± 18 nM
[2]; [17]
  IC50: 156 ± 10 nM
[3]; [18]
  IC50: 125 ± 45 nM
HEL cells [4]; 72 hrs
  effect on proliferation of HEL cells: reduced proliferation of HEL cells very effectively
HEL cells [4]; HEL cells, 72 hrs, mean ± SD
  IC50: 243 ± 41 nM
[5]
  concentration at which nuclei size increases: did not show this effect; also recorded: did not have this effect
[6]
  effect on phosphorylation of STAT5 (Western blot): efficiently decreased
[7]
  effect on phosphorylation of STAT5 (Western blot): efficiently decreased
[8]
  effect on phosphorylation of Jak2: increased phosphorylation of Jak2
HEL cells [9]
  effect on cell cycle profile: reduction in the G2/M peak intensity
[10]
  effect on histone H3 phosphorylation: only very little effect
HEL cells [11]
  effect on HEL cell size: not observed

## Cc1cc(Nc2cc(N3CCN(C)CC3)nc(Sc3ccc(NC(=O)C4CC4)cc3)n2)[nH]n1 [VX680]
[1]; HEL cells
  effect on phosphorylation of STAT5 (Western blot): did not inhibit the phosphorylation of STAT5
  IC50 values, WB (P-STAT5): No inhibition
[2]; [17]
  IC50 values, STAT-reporter gene assay: No inhibition
[3]; [18]
  IC50 values, STAT3-YFP translocation assay: No inhibition
HEL cells [4]; 72 hrs
  effect on proliferation of HEL cells: very efficiently inhibited HEL cell growth
HEL cells [4]; Homo sapiens, HEL, 72 h
  IC50: 158 ± 26 nM
[12]
  increase in nuclei size in cell lines not expressing Jak2V617F: this effect was also clearly visible
[6]
  effect on phosphorylation of STAT5 (Western blot): did not inhibit STAT5 phosphorylation
[7]
  effect on phosphorylation of STAT5 (Western blot): did not inhibit STAT5 phosphorylation
[8]
  effect on phosphorylation of Jak2: not observed
HEL cells [9]
  effect on cell cycle profile: emergence of an 8n peak
[10]
  effect on histone H3 phosphorylation: Reduction in histone H3 phosphorylation
[13]
  effect on histone H3 phosphorylation: decline of histone H3 phosphorylation
[14]
  effect on histone H3 phosphorylation: decline of histone H3 phosphorylation
HEL cells [11]
  effect on HEL cell size: increased in size
[15]
  effect on erythroid and myeloid colony growth: reduced the numbers of myeloid colonies very efficiently but had less effect on erythroid colonies

## Nc1nc(Nc2ccc(S(N)(=O)=O)cc2)nn1C(=O)c1c(F)cccc1F [JNJ7706621]
[1]; HEL cells
  effect on phosphorylation of STAT5 (Western blot): did not inhibit the phosphorylation of STAT5
  IC50 values, WB (P-STAT5): No inhibition
HEL cells [4]; 72 hrs
  effect on proliferation of HEL cells: neither affected cell growth
[8]
  effect on phosphorylation of Jak2: not observed

## CO[C@@H](C(=O)N1Cc2n[nH]c(NC(=O)c3ccc(N4CCN(C)CC4)cc3)c2C1)c1ccccc1 [Danusertib]
[15]
  effect on erythroid and myeloid colony growth: same behaviour

## C[C@]12O[C@H](C[C@]1(O)CO)n1c3ccccc3c3c4c(c5c6ccccc6n2c5c31)CNC4=O [CEP701]
[1]; HEL cells
  effect on phosphorylation of STAT5 (Western blot): strongly reduced phosphorylation of STAT5
[1]; [19]
  IC50: ~100 nM
[1]; [16]
  IC50: 97 ± 39 nM
[2]; 24 h
  IC50: 111 ± 22 nM
[3]
  IC50: 45 ± 15 nM
HEL cells [4]; 72 hrs
  effect on proliferation of HEL cells: reduced proliferation of HEL cells very effectively
HEL cells [4]; Homo sapiens, HEL, 72 h
  IC50: 81 ± 20 nM
[12]
  increase in nuclei size in cell lines not expressing Jak2V617F: this effect was also clearly visible
[6]
  effect on phosphorylation of STAT5 (Western blot): efficiently decreased
[7]
  effect on phosphorylation of STAT5 (Western blot): efficiently decreased
[8]
  effect on phosphorylation of Jak2: increased phosphorylation of Jak2
HEL cells [9]
  effect on cell cycle profile: emergence of an 8n peak
[10]
  effect on histone H3 phosphorylation: Reduction in histone H3 phosphorylation
[13]
  effect on histone H3 phosphorylation: decline of histone H3 phosphorylation
[14]
  effect on histone H3 phosphorylation: decline of histone H3 phosphorylation
HEL cells [11]
  effect on HEL cell size: increased in size
[15]
  effect on erythroid and myeloid colony growth: erythroid and myeloid colonies were equally well suppressed

## O=C(Nc1cccc(Cl)c1)Nc1ncc(CCNc2ncnc3ccsc23)s1 [SNS314]
[15]
  effect on erythroid and myeloid colony growth: same behaviour

## CCN(CC)CCNC(=O)c1c(C)[nH]c(/C=C2\C(=O)Nc3ccc(F)cc32)c1C [Sunitinib]
[1]; HEL cells
  effect on phosphorylation of STAT5 (Western blot): did not inhibit the phosphorylation of STAT5
  IC50 values, WB (P-STAT5): No inhibition
HEL cells [4]; 72 hrs
  effect on proliferation of HEL cells: moderate effect
[6]
  effect on phosphorylation of STAT5 (Western blot): did not inhibit STAT5 phosphorylation
[7]
  effect on phosphorylation of STAT5 (Western blot): did not inhibit STAT5 phosphorylation
[8]
  effect on phosphorylation of Jak2: not observed

## CCN(CCCOc1ccc2c(Nc3cc(CC(=O)Nc4cccc(F)c4)n[nH]3)ncnc2c1)CCOP(=O)(O)O [AZD1152]
[15]
  effect on erythroid and myeloid colony growth: same behaviour

## CC(C)(C)c1nc2c3cc[nH]c(=O)c3c3cc(F)ccc3c2[nH]1 [JI1]
[1]; HEL cells
  effect on phosphorylation of STAT5 (Western blot): strongly reduced phosphorylation of STAT5
[1]; [16]
  IC50: 133 ± 62 nM
[2]; [17]
  IC50: 291 ± 40 nM
[3]; [18]
  IC50: 197 ± 73 nM
HEL cells [4]; 72 hrs
  effect on proliferation of HEL cells: reduced proliferation of HEL cells very effectively
HEL cells [4]; HEL cells, 72 hrs, mean ± SD
  IC50: 506 ± 18 nM
[5]
  concentration at which nuclei size increases: did not have this effect
[6]
  effect on phosphorylation of STAT5 (Western blot): efficiently decreased
[7]
  effect on phosphorylation of STAT5 (Western blot): efficiently decreased
[8]
  effect on phosphorylation of Jak2: increased phosphorylation of Jak2

## Cc1cnc(Nc2ccc(OCCN3CCCC3)cc2)nc1Nc1cccc(S(=O)(=O)NC(C)(C)C)c1 [TG101348]
[1]; HEL cells
  effect on phosphorylation of STAT5 (Western blot): showed the same effects but were less efficient
[1]; [19]
  IC50: ~600 nM
[1]; [16]
  IC50: 636 ± 203 nM
[2]; 24 h
  IC50: 850 ± 101 nM
[3]
  IC50: 385 ± 61 nM
HEL cells [4]; 72 hrs
  effect on proliferation of HEL cells: showed the same effects but were less efficient
HEL cells [4]; Homo sapiens, HEL, 72 h
  IC50: 725 ± 85 nM
[5]
  concentration at which nuclei size increases: did not have this effect
[6]
  effect on phosphorylation of STAT5 (Western blot): efficiently decreased
[7]
  effect on phosphorylation of STAT5 (Western blot): efficiently decreased
[8]
  effect on phosphorylation of Jak2: increased phosphorylation of Jak2

## N#C/C(=C/c1ccc(O)c(O)c1)C(=O)NCc1ccccc1 [AG490]
[1]; HEL cells
  effect on phosphorylation of STAT5 (Western blot): did not inhibit the phosphorylation of STAT5
  IC50 values, WB (P-STAT5): No inhibition
HEL cells [4]; 72 hrs
  effect on proliferation of HEL cells: neither affected cell growth
[6]
  effect on phosphorylation of STAT5 (Western blot): did not inhibit STAT5 phosphorylation
[7]
  effect on phosphorylation of STAT5 (Western blot): did not inhibit STAT5 phosphorylation
[8]
  effect on phosphorylation of Jak2: not observed

## C/C(O)=C(\C#N)C(=O)Nc1cc(Br)ccc1Br [LFM-A13]
[1]; HEL cells
  effect on phosphorylation of STAT5 (Western blot): did not inhibit the phosphorylation of STAT5
  IC50 values, WB (P-STAT5): No inhibition
HEL cells [4]; 72 hrs
  effect on proliferation of HEL cells: neither affected cell growth
[8]
  effect on phosphorylation of Jak2: not observed

## O=C(Nc1c[nH]nc1-c1nc2ccc(CN3CCOCC3)cc2[nH]1)NC1CC1 [AT9283]
[1]; HEL cells
  effect on phosphorylation of STAT5 (Western blot): strongly reduced phosphorylation of STAT5
[3]
  IC50: 74 ± 38 nM
[6]
  effect on phosphorylation of STAT5 (Western blot): efficiently decreased
[7]
  effect on phosphorylation of STAT5 (Western blot): efficiently decreased
[8]
  effect on phosphorylation of Jak2: increased phosphorylation of Jak2
HEL cells [9]
  effect on cell cycle profile: emergence of an 8n peak
[10]
  effect on histone H3 phosphorylation: Reduction in histone H3 phosphorylation
HEL cells [11]
  effect on HEL cell size: increased in size

## C[C@H](NC(=O)/C(C#N)=C/c1cccc(Br)n1)c1ccccc1 [WP1066]
[1]; HEL cells
  effect on phosphorylation of STAT5 (Western blot): did not inhibit the phosphorylation of STAT5
  IC50 values, WB (P-STAT5): No inhibition
[2]; [17]
  IC50 values, STAT-reporter gene assay: No inhibition
HEL cells [4]; 72 hrs
  effect on proliferation of HEL cells: moderate effect
[6]
  effect on phosphorylation of STAT5 (Western blot): did not inhibit STAT5 phosphorylation
[7]
  effect on phosphorylation of STAT5 (Western blot): did not inhibit STAT5 phosphorylation
[8]
  effect on phosphorylation of Jak2: not observed
